Measured values published in patent US5371102A, “Compositions and methods of inhibiting thyroid activity” (priority 1993, dated 1994).
Like-named read-outs stand apart in the source and are kept apart here.

How the values were obtained:
LPX [1] = target: T1, LPX (Bos taurus, UniProt P80025); assay: LPX-mediated oxidative turnover of DMMBI and hydroperoxide; assay type: biochemical, bovine
T1 construct: purchased Sigma Chemical Company
Text: (§1) Materials used in the examples below were obtained from the following sources. Bovine LPX, bovine liver catalase, glucose oxidase, 30% hydrogen peroxide, glucose, guaiacol, ABTS and deuterium oxide were purchased from Sigma Chemical Company. Selenium dioxide, MBI ^13 CH3 I and PBA were purchased from Aldrich Chemical Company and PBA was purified as previously described by Fieset et al., Reagents for Organic Synthesis, Vol. I, pp.135-139, John Wiley and Sons, N.Y. (1967). LPX purity was checked by PAGE, as described by Doerge, D.R., et al. in, Biochem. Pharmacol., Vol.36, pp.972-974 (1986). TPX was purified from hog thyroids obtained from a local slaughterhouse by published procedures. Doerge & Takazowa, Chemical Research in Toxicology, Vol. 3, pp. 98-101 (1990). TPX purity was determined by LC and its concentration determined spectophotometrically. Hydroperoxide concentrations were determined by iodometric titration, as described by Kolthoff, et al., in "Quantitative Chemical Analysis", Macmillan, London, pp.842-860 (1969). MMBI, and BI were synthesized by published procedures as described by Doerge, D.R., Biochem, Vol. 27, pp. 3697-3700 (1988) and were recrystallized from aqueous ethanol. MeBI was purified by distillation and DMeBI^+ was synthesized and purified by recrystallization from ethyl acetate/methanol. 1-^13 C-MMBI was synthesized from ^13 CH3 I according to the procedure disclosed by Doerge, D.R., in, J. Lab. Comp. and Radiopharm., Vol.25, pp.985-990 (1988). PPHP and PPA were prepared, purified and analyzed as previously described by Doerge, Biochem, Vol.27, p.11 (1988). The methyl ester of 1-methyl-benzimidazole-2-sulfinic acid was prepared by addition of hydrogen peroxide (5 equivalents of a 10 M solution) to MMBI (0.1 M) in methanol. The products, MeBI and the ester, were obtained following preparative TLC on silica (Uniplate, Analtech Co., Newark, DL) using 5% methanol/chloroform as eluant.
The distinct methyl and aromatic proton resonances of DMMBI and DMeBI^+ in the ^1 H-NMR spectrum provide a sensitive method to detect enzymatic transformation of DMMBI. DMMBI (100 μM) was incubated with LPX (50 μM), iodide ion (5 mM) and hydrogen peroxide (300 μM) in 10 mls of 0.01 M phosphate buffer solution, pH 7.0. The solution was incubated at 25° C. for 1 min followed by addition of catalase. The sample was then lyophilized and analyzed by ^1 H-NMR. The solids were dissolved in 1 ml D2 O and lyophilized again. Proton-deuterium exchange was repeated twice more and the solids were dissolved in 0.5 ml D2 O containing DSS. The HOD peak was suppressed in a one pulse presaturation experiment where the HOD peak was irradiated for 2 sec prior to acquisition of sample resonances. The ^1 H-NMR spectra of DMeBI^+ and DMMBI were similarly recorded in D2 O.
PPHP is a chromophoric hydroperoxide interchangeable with hydrogen peroxide in many peroxidase-catalyzed reactions. LPX-catalyzed turnover of PPHP gives PPA, the corresponding alcohol, which can be quantitated by HPLC. The use of PPHP permits a direct correlation of LPX-catalyzed substrate consumption and product formation with actual hydroperoxide turnover.

LPX [2] = target: T1, LPX; assay: LPX-catalyzed tyrosine iodination; assay type: biochemical, bovine
Text: Materials used in the examples below were obtained from the following sources. Bovine LPX, bovine liver catalase, glucose oxidase, 30% hydrogen peroxide, glucose, guaiacol, ABTS and deuterium oxide were purchased from Sigma Chemical Company. Selenium dioxide, MBI ^13 CH3 I and PBA were purchased from Aldrich Chemical Company and PBA was purified as previously described by Fieset et al., Reagents for Organic Synthesis, Vol. I, pp.135-139, John Wiley and Sons, N.Y. (1967). LPX purity was checked by PAGE, as described by Doerge, D.R., et al. in, Biochem. Pharmacol., Vol.36, pp.972-974 (1986). TPX was purified from hog thyroids obtained from a local slaughterhouse by published procedures. Doerge & Takazowa, Chemical Research in Toxicology, Vol. 3, pp. 98-101 (1990). TPX purity was determined by LC and its concentration determined spectophotometrically. Hydroperoxide concentrations were determined by iodometric titration, as described by Kolthoff, et al., in "Quantitative Chemical Analysis", Macmillan, London, pp.842-860 (1969). […] PPHP and PPA were prepared, purified and analyzed as previously described by Doerge, Biochem, Vol.27, p.11 (1988). […]
In this experiment the effect of DMMBI on tyrosine iodination catalyzed by LPX was determined. […]

[3] = chemical oxidation stoichiometry of thiones; assay type: physicochemical
Experimental: Oxidation stoichiometries were determined for the thione compounds MBI, MMBI and DMMBI by incubating the thiones with varying amounts of PBA (0-250μM). The rapid reaction (t1/2 <10 s at 25° C.) of benzimidazole-2-thiones with PBA in methanol provided a convenient method for determining oxidation stoichiometry.
Oxidation stoichiometries were determined spectrophoto, metrically, using a Hewlett Packard 8452A diode array spectrophotometer, by measuring thione concentration at 305 nm as a function of PBA concentration. Hydroperoxide content was determined iodometrically. Stoichiometries of substrate consumption/product formation were also determined by addition of limiting amounts of PBA to 100 μM MBI or MMBI in 50% methanol/pH 7 phosphate. The disappearance of thione and the production of BI, MeBI and bisulfite ion was determined after one hour at 25° C. The production of bisulfite ion was measured […]. The production of sulfate ion was determined by ion chromatography using a AS4A column (Dionex Co., Sunnyvale, CA) with a Dionex Gradient Pump Module and a Dionex CDM II conductivity detector equipped with an AMMS suppressor using 3 mM carbonate/bicarbonate buffer pH 10 as eluant at 2.0 ml/min. Reaction products were also monitored by ^1 H NMR performed at 300 MHz using a Nicolet NT300 or General Electric QE300 spectrometer DSS as a reference.

LPX [4] = target: T1, LPX; assay: LPX iodide ion oxidation activity after incubation and dilution; assay type: biochemical, bovine; conditions: for remaining activity at 100 µM: 100 μM DMMBI, 100 s at 25° C., 200-fold dilution, n=4, read-out: Rate (% of control)
Text: as §1
The following experiment was performed to determine the effect of DMMBI oxidation on LPX activity. LPX (0.1 μM, final concentration) was incubated with hydrogen peroxide (100 μM), iodide ion (5 mM) and DMMBI (100 μM), as indicated in Table 2. After a 100 second incubation at 25° C., an aliquot was diluted 200-fold and the iodide ion oxidation activity determined. Values shown in Table 2, are averages +/- standard deviations (n=4) of the percentage relative to untreated LPX.

LPX [5] = target: T1, LPX; assay: LPX suicide inactivation kinetics; assay type: biochemical, bovine; conditions: presence of hydrogen peroxide
Text: as §1
Inhibition of LPX activity by thiones was determined from the kinetics of iodide ion, guaiacol or ABTS oxidation assays conducted at 25° C. Kinetic parameters of suicide inactivation were determined as previously described. Doerge, Biochem. Vol.27, pp.3697-3700 (1988).

[6] = PPHP-supported LPX-catalyzed iodination

Cn1c(=S)n(C)c2ccccc21 [DMMBI, 1,3-dimethylbenzimidazole-2-thione]
conversion of DMMBI to DMeBI+ (LPX [1]; LPX, 3 equivalents H2O2 and iodide ion): quantitative conversion of DMMBI to DMeBI^+
turnover events without LPX inactivation (LPX [1]; LPX, hydrogen peroxide and iodide ion): > 300 turnover events
moles of PPA formed per mole of DMMBI consumed (LPX [1]; [6]): 3.2 ± 0.2 mol
moles of PPHP consumed per mole of DMMBI consumed (LPX [1]; [6]): 3.2 mol
conversion of DMMBI to DMeBI+ (LPX [1]; controls: no iodide ion, no LPX or no hydrogen peroxide): no conversion of DMMBI to DMeBI^+ was observed
tyrosine iodination (LPX [2]): inhibits tyrosine iodination
equivalents of oxidant required ([3]; PBA or hydrogen peroxide, aqueous medium, products DMeBI+ and sulfate): 3 equivalents
moles of oxidant required for total reaction ([3]; PBA, FIG. 4): three
equivalents of hydroperoxide required per mole of thione ([3]; hydroperoxides): 3 equivalents
remaining activity at 100 µM (LPX [4]; LPX + DMMBI): 100 ± 4%
remaining activity at 100 µM (LPX [4]; LPX + H2O2 + DMMBI + I-): 107 ± 6%
remaining activity at 100 µM (LPX [4]; LPX + H2O2 + DMMBI): 104 ± 6%
loss of enzymatic activity (LPX [4]; LPX/hydrogen peroxide, absence of iodide ion): did not cause any loss of enzymatic activity
loss of enzymatic activity (LPX [4]; iodide ion present, DMMBI converted to DMeBI+, 1/200 dilution): no loss of enzymatic activity was detected
LPX inactivation / loss of LPX activity (LPX [5]): does not inactivate LPX or TPX
